Assay results taken from patent US11246929B2, “Combination of a protein kinase inhibitor and an additional chemotherapeutic agent” (Merck Patent GmbH, priority 2016, dated 2022).

Tested on: MO59K (DNA-PK wild type)
Assay: AlamarBlue viability assay
Type: cell-based, human
Conditions: compound incubation for 72 h
Protocol: Details of the assay protocol and material utilized are set forth below.
After 24 h incubation at 37° C.
At the end of the compound incubation period 20 μl AlamarBlue reagent was added per well and the 96-well plates were incubated further up to seven hours. Absorption was determined at 540 nm by using Tecan Reader Connect and Magelan 7.
0% effect=cells treated with DMSO; −100% effect=no cells

How did the “potentiation of etoposide, Compound 1 in comparison to VX-984” value turn out when `[2H]c1nc(C)nc([2H])c1-c1cc(NC[C@@H](C)c2cccc3c(C(N)=O)ccnc23)ncn1` [VX984, 8-[(1S)-2-[[6-(4,6-dideuterio-2-methylpyrimidin-5-yl)pyrimidin-4-yl]amino]-1-methylethyl]quinoline-4-carboxamide] was run?
Its value is “requires higher concentrations of etoposide to arrive at the same % effect”.
